From patent US20110312934A1, “2-ALKYL-6-CYCLOAMINO-3-(PYRIDIN-4-YL)IMIDAZO[1,2-B]-PYRIDAZINE DERIVATIVES, PREPARATION THEREOF, AND THERAPEUTIC APPLICATION THEREOF” (SANOFI-AVENTIS, priority 2008, published 2011)

Assays:
[1] = target: T1, human CK1 delta (Homo sapiens, UniProt P48730); assay: FRET Z'Lyte kinase assay, CK1 delta; assay type: biochemical; conditions: peptide substrate SER/THR 11 2 μM, ATP 4 times the KM, read-out: CK1 delta Cl50
T1 construct: purchased Invitrogen Corporation PV3665
T1 sequence (P48730 whole entry): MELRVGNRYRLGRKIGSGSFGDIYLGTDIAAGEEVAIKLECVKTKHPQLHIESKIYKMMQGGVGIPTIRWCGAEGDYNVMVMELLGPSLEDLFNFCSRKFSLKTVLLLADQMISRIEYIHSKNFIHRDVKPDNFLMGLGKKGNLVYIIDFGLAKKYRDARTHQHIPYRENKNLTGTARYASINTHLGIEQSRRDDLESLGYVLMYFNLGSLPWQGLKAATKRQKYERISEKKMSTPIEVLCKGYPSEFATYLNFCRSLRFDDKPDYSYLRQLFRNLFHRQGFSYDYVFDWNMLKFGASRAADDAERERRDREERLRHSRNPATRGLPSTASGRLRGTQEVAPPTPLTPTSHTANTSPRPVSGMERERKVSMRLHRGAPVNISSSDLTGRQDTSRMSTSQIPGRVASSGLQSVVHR
Excerpt: The capacity of the compounds of the invention to inhibit the phosphorylation of casein by casein kinase 1 epsilon and delta may be evaluated using a FRET (Fluorescence Resonance Energy Transfer) fluorescence test with the aid of the Z'Lyte™ kinase assay Kit (reference PV3670; Invitrogen Corporation™) according to the manufacturer's instructions.
The casein kinases 1 used are obtained from Invitrogen Corporation (human CK1 epsilon PV3500 and human CK1 delta PV3665).
A peptide substrate, labelled at both ends with a fluorophore donor group (coumarin) and a fluorophore acceptor group (fluorescein), constituting a FRET system is phosphorylated in the presence of ATP by casein kinase 1 epsilon or delta in the presence of increasing concentrations of compounds of the invention.
The mixture is treated with a site-specific protease that specifically cleaves the peptide substrate to form two fluorescent fragments having a large fluorescence emission ratio.
The fluorescence observed is thus related to the capacity of the products of the invention to inhibit the phosphorylation of the peptide substrate by casein kinase 1 epsilon or casein kinase 1 delta. […]
The emitted fluorescence is measured at wavelengths of 445 and 520 nm (excitation at 400 nm).

[2] = target: T2, casein kinase 1 epsilon (CK1 epsilon) (Homo sapiens, UniProt P49674); assay: Filter-plate assay of ATP-33P, inhibition of phosphorylation of casein by CK1 epsilon; assay type: biochemical; conditions: ATP-33P filtration, cold ATP 10 μM final, 2 hours at ambient temperature, read-out: CK1 epsilon Cl50
T2 construct: Invitrogen Corporation (alternative)
T2 sequence (P49674 whole entry): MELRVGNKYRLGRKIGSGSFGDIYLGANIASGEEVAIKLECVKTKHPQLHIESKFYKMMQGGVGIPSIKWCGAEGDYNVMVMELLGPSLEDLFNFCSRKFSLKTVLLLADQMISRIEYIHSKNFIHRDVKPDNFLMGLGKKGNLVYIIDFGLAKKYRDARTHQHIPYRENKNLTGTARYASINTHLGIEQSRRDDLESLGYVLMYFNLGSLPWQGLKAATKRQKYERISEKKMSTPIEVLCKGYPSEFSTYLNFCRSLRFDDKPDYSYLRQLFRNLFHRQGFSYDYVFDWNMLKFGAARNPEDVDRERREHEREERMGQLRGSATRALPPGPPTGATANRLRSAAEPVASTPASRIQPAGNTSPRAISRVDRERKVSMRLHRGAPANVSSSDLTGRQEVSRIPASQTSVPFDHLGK
Method: The capacity of the compounds of the invention to inhibit the phosphorylation of casein by casein kinase 1 epsilon and delta may be evaluated according to the procedure described in US 2005/0131012.
Filter-Plate Assay of ATP-^33P for the Screening of CK1 Epsilon Inhibitors:
The effect of the compounds on inhibition of the phosphorylation of casein by the enzyme casein kinase 1 epsilon (CK1 epsilon) is measured, using a casein assay with filtration of ATP-^33P in vitro.
Casein kinase 1 epsilon (0.58 mg/ml) is obtained via fermentation and purification processes performed according to methods that are well known to those skilled in the art, or may also be obtained from Invitrogen Corporation™ (human CK1 epsilon).
The compounds are tested at five different concentrations so as to generate IC50 values, i.e. the concentration at which a compound is capable of inhibiting the enzymatic activity by 50%, or alternatively the percentage of inhibition at a concentration of 10 micromolar.
“U”-bottomed Falcon plates are prepared by placing 5 μl of solutions of the compounds according to the invention at concentrations of 10, 1, 0.1, 0.01 or 0.001 μM in different wells. The solutions of the compounds according to the invention at these various concentrations are prepared by diluting in a test buffer (50 mM Tris, pH 7.5, […], 2 mM DTT and 1 mM EGTA) a stock solution in DMSO at a concentration of 10 mM. Next, 5 μl of dephosphorylated casein are added to a final concentration of 0.2 μg/μl, 20 μl of CK1 epsilon to a final concentration of 3 ng/μl, and 20 μl of ATP-^33P to a final concentration of 0.02 μCi/μl mixed with cold ATP (10 μM final—approximately 2×10^6 CPM per well). The final total test volume per well is equal to 50 μl.
The “U”-bottomed Falcon® test plate mentioned above is vortexed, and then incubated at ambient temperature for 2 hours. After 2 hours, the reaction is stopped by adding an ice-cold solution of 65 μl of ATP (2 mM) prepared in test buffer.
100 μl of the reaction mixture are then transferred from the “U”-bottomed Falcon® plate into Millipore® MAPH filter plates, preimpregnated with 25 μl of ice-cold 100% TCA. […]
The plates are left to dry overnight at ambient temperature. […] The radiation emitted by each well is then measured for 2 minutes in a Packard® Topcount NXT scintillation counter, in which the values of CPM/well are measured.
The percentage inhibition of the capacity of the enzyme to phosphorylate the substrate (casein) is determined for each concentration of compound tested. These inhibition data expressed as percentages are used to calculate the IC50 value for each compound compared with the controls.
The kinetic studies determined the KM value for ATP as being 21 μM in this test system.

IC50 [1]: < 1 nM | IC50 [2]: 57 nM
SMILES: Cc1nc2ccc(N3CCNCC3)nn2c1-c1ccncc1 [Compound 1, 2-Methyl-6-piperazin-1-yl-3-pyridin-4-yl-imidazo[1,2-b]pyridazine]
